# Experimental data reported in PMC4111740, “Ligand-Based Pharmacophore Modeling and Virtual Screening for the Discovery of Novel 17β-Hydroxysteroid Dehydrogenase 2 Inhibitors” (Journal of Medicinal Chemistry, 2014).
# Entries after “also recorded” stand apart in the source; their conditions may differ.
# Tested on: 17β-HSD2
# Test: not given
# Conditions: Table S1; ref SI 1, 2, 4; read-out: IC50 17β-HSD2 (test set); cited from earlier work
row,SMILES,IC50 [nM]
1,Cc1cccc(-c2ccc(C(=O)N(C)Cc3cccc(O)c3)s2)c1 [Compound 2],164
2,CN1C(=O)C[C@H](c2ccccc2F)[C@@H]1[C@H](O)c1ccc(-c2ccccc2)s1 [Compound 8],10
3,CN1C(=O)C[C@H](c2ccccc2)[C@@H]1[C@H](O)c1ccc(-c2cccnc2)s1 [Compound 3],50
4,COc1ccc(-c2ccc(C(=O)N(C)Cc3cccc(O)c3)s2)cc1 [Compound 7],161
5,COc1cccc(-c2ccc(C(=O)N(C)Cc3cccc(O)c3)s2)c1F [Compound 6],61
6,Oc1ccc(-c2ccc3c(O)cccc3c2)cc1 [Compound 1],302

# Same assay, conditions: Table S1; ref SI 3; read-out: IC50 17β-HSD2 (test set); cited from earlier work
row,SMILES,IC50 [nM]
1,Oc1cccc(-c2ccnc(-c3ccc(Cl)s3)c2)c1 [Compound 4],470

# Same assay, conditions: at 1 µM, Table S1; ref SI 1, 2, 3, 5, 6; cited from earlier work
row,SMILES,17β-HSD2 enzyme inhibition (test set) [%]
1,CC(=O)Nc1cccc(-c2ccc(O)cc2)c1 [462660-26-0],< 10
2,CS(=O)(=O)Nc1ccc(-c2ccc(O)cc2)cc1 [319015-65-1],< 10
3,Oc1cccc(-c2ccccc2)c1 [580-51-8],< 10

# Same assay, conditions: at 10 µM, Table S1; ref SI 7, 10; cited from earlier work
row,SMILES,17β-HSD2 enzyme inhibition (test set) [%]
1,C[C@]12CC[C@@H]3c4ccc(O)cc4C(=O)C[C@H]3[C@@H]1CCC2=O [1476-34-2],< 10

# Target: T1, 17β-HSD2 (Homo sapiens, UniProt P37059)
# T1 construct: expressed in transfected cells; host or cells: HEK-293 (transient, calcium phosphate), lysate
# T1 sequence (P37059 1-387): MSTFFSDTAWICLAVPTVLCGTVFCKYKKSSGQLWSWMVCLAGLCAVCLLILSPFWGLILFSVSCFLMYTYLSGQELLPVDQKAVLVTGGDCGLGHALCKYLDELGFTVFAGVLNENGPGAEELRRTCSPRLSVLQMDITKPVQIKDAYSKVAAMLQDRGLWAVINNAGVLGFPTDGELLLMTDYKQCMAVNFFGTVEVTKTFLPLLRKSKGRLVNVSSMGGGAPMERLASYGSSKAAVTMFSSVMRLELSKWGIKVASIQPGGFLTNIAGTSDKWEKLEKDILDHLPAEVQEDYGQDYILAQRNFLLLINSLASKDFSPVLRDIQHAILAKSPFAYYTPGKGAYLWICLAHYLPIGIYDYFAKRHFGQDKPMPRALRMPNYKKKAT
# Test: 17β-HSD2 activity in lysates of transfected HEK-293 cells (cell-free, radiolabeled estradiol)
# Type: biochemical
# Conditions: Table S2, virtual screening hits, tested at 20 μM in lysates
# Procedure: Next, the 17β-HSD2 inhibitory activities of the chosen hits were evaluated in a cell-free assay. The activities were first determined at an inhibitor concentration of 20 μM using lysates of transfected HEK-293 cells. In all experiments, vehicle was included as negative control and N-(3-methoxyphenyl)-N-methyl-5-m-tolylthiophene-2-carboxamide (compound 19 from ref ([26])) as positive control.
# HEK-293 cells were transfected by the calcium phosphate precipitation method with plasmids for human 17β-HSD1, 17β-HSD2, or 11β-HSD2. Cells were cultivated for 48 h, washed with phosphate-buffered saline, and centrifuged for 4 min at 150g. After removal of the supernatants, cell pellets were snap frozen in dry ice and stored at −80 °C until further use.
# Lysates of human embryonic kidney cells (HEK-293) expressing either 17β-HSD1 or 17β-HSD2 were incubated for 10 min at 37 °C in TS2 buffer in a final volume of 22 μL containing either solvent (0.2% DMSO/chloroform) or the inhibitor at the respective concentration. N-(3-Methoxyphenyl)-N-methyl-5-m-tolylthiophene-2-carboxamide (compound 19 in ref ([26])) and apigenin[50] were used as positive controls for 17β-HSD1 and 17β-HSD2, respectively, in all experiments. 17β-HSD1 activity was measured in the presence of 190 nM unlabeled estrone, 10 nM radiolabeled estrone, and 500 μM NADPH. In contrast, 17β-HSD2 activity was determined in the presence of 190 nM unlabeled estradiol, 10 nM radiolabeled estradiol, and 500 μM NAD^+. Reactions were stopped after 10 min by adding an excess of unlabeled estradiol and estrone (1:1, 2 mM in methanol). Possible promiscuous enzyme inhibition by aggregate formation of the chemicals was excluded by measuring the inhibition of the enzyme activity by the compounds in the presence of 0.1% Triton X-100.[36] […] To exclude irreversible inhibition by the compounds investigated,[35] cell lysates were preincubated with the compounds for 0, 10, and 30 min, respectively, followed by measurement of the enzyme activity. […] The steroids were separated by TLC, followed by scintillation counting and calculation of substrate concentration. Data were collected from at least three independent measurements.
row,17β-HSD2 Activity (in words),SMILES
1,Inactive,COC(=O)c1cc(NC(=O)c2ccc(OC)cc2)ccc1O [AN-652/43163172]
2,Inactive,COc1cc(C=Nc2ccc(OC(F)(F)F)cc2)ccc1O [AN-329/11450193]
3,Inactive,CCn1c(Cc2ccccc2)nnc1SCC(=O)Nc1ccccc1OC [AG-690/40750820]
4,Inactive,O=C(Cn1nnc2ccccc21)N/N=C/c1ccccc1F [AG-205/07947037]
5,Inactive,O=C(COc1ccc(-c2ccccc2)cc1)Nc1ccccc1C(=O)NC1CCCCC1 [AN-329/42613159]
6,Inactive,COc1ccc(OC)c(NC(=O)C(C)Oc2ccc(-c3ccccc3)cc2)c1 (stereo not drawn) [AN-329/42958201]
7,Inactive,COc1ccccc1NC(=O)COc1ccc(/C=c2/sc3n(c2=O)CCN=3)cc1 [AH-487/15020191]
8,Inactive,COc1ccccc1NC(=O)CCC(=O)OC(C)C(=O)c1ccccc1 (stereo not drawn) [AG-690/15435864]
9,Inactive,Oc1cccc(C(O)CNCc2ccncc2)c1 (stereo not drawn) [AN-465/42246299]
10,Inactive,O=C(COC(=O)c1ccc2c(c1)C(=O)N(c1cccc(O)c1)C2=O)c1ccccc1 [AK-918/37182008]
11,Inactive,Cc1ccccc1/C=N/NC(=O)Cn1nnc2ccccc21 [AK-968/11367105]
12,Inactive,O=C(Cn1nnc2ccccc21)c1ccc(-c2ccccc2)cc1 [AK-918/11592002]
13,Inactive,O=C(Nc1ccc(O)cc1)c1ccc2c(c1)C(=O)N(Cc1ccco1)C2=O [AN-979/41971109]
14,Inactive,Oc1ccc(-c2cn3cc(C(F)(F)F)ccc3n2)cc1 [AQ-776/42801516]
15,Inactive,COc1ccc(C(=O)COC(=O)c2ccc(O)cc2)cc1 [AK-918/12108002]
16,Inactive,O=C(CSc1ccccc1)Nc1ccc(C(=O)Nc2ccc(O)cc2)cc1 [AN-979/42723474]
17,Inactive,CN(C)Cc1ccccc1Sc1ccc(O)cc1O [AE-641/30109032]
18,Inactive,COc1ccccc1NCC(=O)N/N=C/c1sccc1C [AN-329/11413636]
19,Inactive,COc1cc(C(=O)Nc2cc(C(F)(F)F)ccc2N2CCOCC2)ccc1O [AP-906/41927951]
20,Inactive,CCCC(=O)Nc1ccc(C(=O)NCc2ccc(OC)cc2)cc1 [AJ-292/42647512]

# Same assay, conditions: relative to compound 12
row,less potent than the most active hit (17β-HSD2) [fold],SMILES
1,5,O=C(CSc1nccc(O)n1)Nc1cccc2nsnc12 [Compound 15]

# Target: T2, 17β-HSD3 (Homo sapiens, UniProt P37058)
# T2 construct: expressed in transfected cells; host or cells: HEK-293 (transient, calcium phosphate), intact cells
# T2 sequence (P37058 1-310): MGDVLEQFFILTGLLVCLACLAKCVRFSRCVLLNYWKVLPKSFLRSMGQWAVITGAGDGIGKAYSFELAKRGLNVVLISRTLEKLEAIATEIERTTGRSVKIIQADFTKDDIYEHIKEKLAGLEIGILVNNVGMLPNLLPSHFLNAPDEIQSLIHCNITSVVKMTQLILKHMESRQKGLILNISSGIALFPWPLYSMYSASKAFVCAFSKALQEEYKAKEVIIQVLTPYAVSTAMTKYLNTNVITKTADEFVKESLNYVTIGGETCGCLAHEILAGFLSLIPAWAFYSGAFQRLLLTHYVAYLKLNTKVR
# Test: 17β-HSD3 activity in intact transfected HEK-293 cells
# Type: cell-based
# Conditions: intact cells
# Procedure: (§1) Human embryonic kidney cells (HEK-293) were cultivated in DMEM containing 4.5 g/L glucose, 10% fetal bovine serum, 100 U/mL penicillin, 0.1 mg/mL streptomycin, 1× MEM nonessential amino acids, and 10 mM HEPES buffer, pH 7.4. The cells were incubated at 37 °C until 80% confluency. The cells were transfected using the calcium phosphate method with expression plasmids for 17β-HSD2 and 17β-HSD3. After 24 h, the cells were trypsinized and seeded on poly-L-lysine-coated 96-well plates (15 000 cells/well).
# (§2) The inhibitory activities were measured 24 h after seeding as follows: old medium was aspirated and replaced by 30 μL of charcoal-treated DMEM (cDMEM). Ten microliters of inhibitor dissolved in cDMEM into the respective concentration was added, and mixtures were preincubated at 37 °C for 20 min. 17β-HSD2 inhibitory activities were measured in the presence of 190 nM unlabeled estradiol and 10 nM radiolabeled estradiol. N-(3-Methoxyphenyl)-N-methyl-5-m-tolylthiophene-2-carboxamide (compound 19 in ref ([26])) was used as positive control. The reaction mixtures were incubated for 20 min, and the reactions were stopped by adding an excess of estradiol and estrone (1:1, 2 mM in methanol) to the mixture.
# 17β-HSD3 inhibitory activities were measured in the presence of 190 nM unlabeled androstenedione and 10 nM radiolabeled androstenedione. Benzophenone-1 was used as positive control. The reaction mixtures were incubated for 30 min, and the reactions were stopped by adding an excess of androstenedione and testosterone (1:1, 2 mM in methanol). The steroids were separated by TLC, followed by scintillation counting and calculation of substrate concentration. Data was obtained from three independent measurements.
row,17β-HSD3 inhibition (in words),SMILES
1,equipotent toward these two enzymes,O=S(=O)(Nc1ccc(O)c(Cl)c1)c1ccc(F)cc1 [Compound 13]
2,weak 17β-HSD3 inhibitors,Cc1cc(C)c(S(=O)(=O)Nc2cccc(O)c2)cc1C [Compound 16]

row,SMILES,17β-HSD3 inhibition (in words)
1,Cc1cc(C)c(OCC(=O)N/N=C/c2ccc(O)cc2O)c(Br)c1 [Compound 11],more active against 17β-HSD3 than 17β-HSD2

# Same assay, conditions: rest activity at 20 μM, Table 3
row,17β-HSD3 intact inhibition class (n.i.),SMILES
1,n.i,COc1ccc(S(=O)(=O)Nc2ccc(O)c3c2CCCC3)cc1 [Compound 20]
2,n.i,O=S(=O)(Nc1cccc(O)c1)c1ccc(Br)cc1 [Compound 21]
3,n.i,Cc1ccc(NS(=O)(=O)c2cccc(Br)c2)cc1O [Compound 24]

# Target: T1, 17β-HSD2
# Test: 17β-HSD2 activity in intact transfected HEK-293 cells
# Type: cell-based
# Conditions: intact HEK-293 cells
# Procedure: as §1, §2
row,SMILES,17β-HSD2 inhibition in intact cells (in words)
1,O=S(=O)(Nc1ccc(O)c(Cl)c1)c1ccc(F)cc1 [Compound 13],concentration-dependently inhibited 17β-HSD2
2,Cc1cc(C)c(OCC(=O)N/N=C/c2ccc(O)cc2O)c(Br)c1 [Compound 11],concentration-dependently inhibited 17β-HSD2
3,O=C(CSc1nccc(O)n1)Nc1cccc2nsnc12 [Compound 15],concentration-dependently inhibited 17β-HSD2

# Target: T3, 11β-HSD1 (Homo sapiens, UniProt P28845)
# T3 construct: expressed in transfected cells
# Test: 11β-HSD1 activity in lysates of stably transfected cells
# Type: biochemical
# Conditions: lysates
# Procedure: The methods to determine 11β-HSD1 and -2 activity were performed as described previously.[64] Briefly, lysates of stably transfected cells, expressing either 11β-HSD1 or 11β-HSD2, were incubated for 10 min at 37 °C in TS2 buffer in a final volume of 22 μL containing either solvent (0.2% DMSO) or the inhibitor at the respective concentration. The nonselective 11β-HSD inhibitor glycyrrhetinic acid was used as positive control. Activity measurements of 11β-HSD1 were performed with 190 nM unlabeled cortisone, 10 nM radiolabeled cortisone, and 500 μM NADPH. To measure 11β-HSD2 activity, lysates were incubated with 40 nM unlabeled cortisol, 10 nM radiolabeled cortisol, and 500 μM NAD^+. Reactions were stopped after 10 min by adding an excess of unlabeled cortisone and cortisol (1:1, 2 mM in methanol). The steroids were separated by TLC, followed by scintillation counting and calculation of substrate concentration. Data were collected from at least three independent measurements.
# T3 sequence (P28845 whole entry): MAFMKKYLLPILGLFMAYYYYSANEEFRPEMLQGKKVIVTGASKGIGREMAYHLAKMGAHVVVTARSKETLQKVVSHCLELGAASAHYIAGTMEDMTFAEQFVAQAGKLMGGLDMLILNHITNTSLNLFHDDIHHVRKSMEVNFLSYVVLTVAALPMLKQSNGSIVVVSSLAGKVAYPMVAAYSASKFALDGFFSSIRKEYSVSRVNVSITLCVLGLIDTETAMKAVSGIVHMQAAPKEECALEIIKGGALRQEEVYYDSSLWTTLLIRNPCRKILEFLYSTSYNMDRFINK
row,SMILES,11β-HSD1 versus 17β-HSD2 potency (in words)
1,COc1ccc(S(=O)(=O)Nc2ccc(O)c3c2CCCC3)cc1 [Compound 20],almost equipotent toward 17β-HSD2 and 11β-HSD1; also recorded: equipotent 17β-HSD2 and 11β-HSD1 inhibitors
